Experimental data reported in the NIST ThermoML archive (doi:10.1021/je034066w).
Numbers after ± are expanded uncertainties.

Settings: Liquid

Critical pressure (Direct measurement): 4755 ± 48 kPa
Critical temperature (Visual observation in a stirred cell): 508.15 ± 0.12 K
SMILES: CC(C)O [propan-2-ol]
